Values joined by “and” are separate entries in the source; they are usually repeats but may differ in a detail not shown here. Equal entries are not always repeated.
Tested on: OVCAR-5 complex spheroid (HUVEC/MSC), viability % T/C
Assay: Anticancer human tumor OVCAR-5 cell line growth inhibition [Asc];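 further: spheroids exposed to agents for 7 days before readout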;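 on viability, T/C: 100% = DMSO vehicle-treated wells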
Conditions: for viability, T/C: stronger effect = lower value; active means viability on the fitted dose curve at most 10% of control; inactive means the rest
Procedure: Multicellular complex tumor spheroid response to apoptosis pathway targeting inhibitors Alrizomadlin, Pelcitoclax, and Dasminapant in combination with a variety of drugs and investigational agents in selected tumor cell lines
The MDM2 inhibitor alrizomadlin, the Bcl-2/Bcl-xL inhibitor pelcitoclax, and the IAPs inhibitor dasminapant were evaluated both individually and in combination with standard of care and investigational anticancer small molecules within a complex spheroid model of solid tumors. . Complex spheroids include a stromal component modeled by human endothelial cells (HUVEC) and fibroblasts modeled by human mesenchymal stem cells (MSCs). The concentration ranges selected for each drug and investigational agent were based upon clinically achievable concentrations if the clinical Cmax of the agent was known.
Compounds. The drugs and investigational agents: alrizomadlin (APG-115; NSC831270), pelcitoclax (APG-1252; NSC835773), dasminapant (APG-1387;NSC834197), TAK-243 (NSC785004), copanlisib (NSC809693), olaparib (NSC753686), talazoparib (NSC767125), cobimetinib (NSC 768068), eltanexor (KPT-8602, NSC 794443), abemaciclib (NSC 768073), sotorasib (NSC818433), adagrasib (NSC 831453), MRTX-1133 (NSC 836407), Iadademestat (ORY1001, NSC 806812), and RMC-4630 (NSC839698), were obtained from the NCI Developmental Therapeutics Program Chemical Repository. The FDA-approved anticancer drug set is available from the Developmental Therapeutics Program at https://dtp.cancer.gov/organization/dscb/obtaining/available plates.htm. […] The stock solutions were prepared in dimethyl sulfoxide (DMSO, Sigma-Aldrich, St. Louis, MO, cat. D2650) at 800-fold the tested concentration and stored at -70 degrees C prior to their use. All drugs and investigational agents were tested over a range starting from a high concentration at or near the clinical Cmax and decreasing in half-log increments. If the clinical Cmax for an agent had not been determined, the highest concentration tested was 10 microM.
The patient-derived cancer (PDC) cell lines include five colon adenocarcinomas: 186277-243-T-J2-PDC, 616215-338-R-J1-PDC, 439559-082-T-J2-PDC, 463943-066-T-J2-PDC, and 519858-162-T-J1-PDC; three pancreatic carcinomas: 323965-272-R-J2-PDC, 521955-158-R6-J3-PDC, and 521955-158-R2-J5-PDC; two uterine sarcomas: 327498-152-R-J2-PDC and 993429-296-R-J1-PDC; two rhabdomyosarcomas: 755483-174-R-J1-PDC and 772245-204-R-J1-PDC; two soft tissue sarcomas: 126254-015-R-J1-PDC and 494315-158-R-J1-PDC; two malignant fibrous histiocytomas: 317291-083-R-J1-PDC and 596521-263-R-J1-PDC; two breast carcinomas: 171881-019-R-J1-PDC and 885512-296-R-J2-PDC; and one ovarian carcinoma: 6556581-035-R-J-PDC were obtained from the NCI PDMR, (https://pdmr.cancer.gov). The established cell lines HSSY-2 synovial sarcoma (RRID:CVCL 8719), SYO-1 synovial sarcoma (RRID:CVCL_7146), MPNST malignant peripheral neural sheath tumor were obtained from the Sloan Kettering Institute. The following established cell lines were purchased from the American Type Culture Collection (ATCC, Manassas, VA), Sor the received from the NCI repository:, PANC-1 pancreatic carcinoma (CRL-1469, RRID:CVCL_0480), OVCAR-5 ovarian carcinoma (RRID:CVCL_1628), OVCAR-8 ovarian carcinoma (RRID:CVCL_1629), , MCF-7 breast carcinoma (CRL-12584, RRID:CVCL_0031), MDA-MB-231 breast carcinoma (CRL-12532, RRID:CVCL_0062), NCI-H1876 small cell lung carcinoma (CRL-5902, RRID:CVCL_1503), NCI-H510A small cell lung carcinoma (HTB-184, RRID:CVCL_1565), NCI-H1417 (CRL-5869, RRID:CVCL_1469), and NCI-H196 small cell lung carcinoma (CRL-5823, RRID:CVCL_1509). Dr. Peter Houghton (Greehey Children's Cancer Research Institute, University of Texas Health Science Center, San Antonio, TX) provided Rh-18 rhabdomyosarcoma (RRID:CVCL_1659). Pooled donor human umbilical vein endothelial cells (HUVEC, Lonza, cat. CC-2519) and human mesenchymal stem cells (hMSC, Lonza, cat. PT-2501) were purchased from Lonza (Walkersville, MD).
Cell Culture. […]

C=CC(=O)N1CCN(c2nc(=O)n(-c3c(C)ccnc3C(C)C)c3nc(-c4c(O)cccc4F)c(F)cc23)C(C)C1 (configuration not stated) + Cc1c(S(C)(=O)=O)c(-c2cc(F)cc(N3CCN(c4ccc(NS(=O)(=O)c5ccc(NC(CCN6CCC(C(=O)OCCCP(=O)(O)O)CC6)CSc6ccccc6)c(S(=O)(=O)C(F)(F)F)c5)cc4)CC3)c2)c(-c2ccc(Cl)cc2)n1C(C)C
inactive: viability, T/C (second compound 0.1 µM, first compound 0.0316 µM) 100% | viability, T/C (second compound 0.1 µM, first compound 0.1 µM) 109% | viability, T/C (second compound 0.1 µM, first compound 0.316 µM) 98.7% | viability, T/C (second compound 0.1 µM, first compound 1 µM) 111% | viability, T/C (second compound 0.1 µM, first compound 3.16 µM) 114% | viability, T/C (second compound 0.1 µM, first compound 10 µM) 97.5% | viability, T/C (second compound 0.316 µM, first compound 0.0316 µM) 93.4% | viability, T/C (second compound 0.316 µM, first compound 0.1 µM) 103% | viability, T/C (second compound 0.316 µM, first compound 0.316 µM) 95.5% | viability, T/C (second compound 0.316 µM, first compound 1 µM) 96.9% | viability, T/C (second compound 0.316 µM, first compound 3.16 µM) 112% | viability, T/C (second compound 0.316 µM, first compound 10 µM) 102% | viability, T/C (second compound 1 µM, first compound 0.0316 µM) 89.8% | viability, T/C (second compound 1 µM, first compound 0.1 µM) 101% | viability, T/C (second compound 1 µM, first compound 0.316 µM) 111% | viability, T/C (second compound 1 µM, first compound 1 µM) 98.2% | viability, T/C (second compound 1 µM, first compound 3.16 µM) 97.5% | viability, T/C (second compound 1 µM, first compound 10 µM) 106% | viability, T/C (second compound 3.16 µM, first compound 0.0316 µM) 95.4% | viability, T/C (second compound 3.16 µM, first compound 0.1 µM) 102% | viability, T/C (second compound 3.16 µM, first compound 0.316 µM) 109% | viability, T/C (second compound 3.16 µM, first compound 1 µM) 103% | viability, T/C (second compound 3.16 µM, first compound 3.16 µM) 108% | viability, T/C (second compound 3.16 µM, first compound 10 µM) 98.1% | viability, T/C (second compound 10 µM, first compound 0.0316 µM) 119% | viability, T/C (second compound 10 µM, first compound 0.1 µM) 136% | viability, T/C (second compound 10 µM, first compound 0.316 µM) 142% | viability, T/C (second compound 10 µM, first compound 1 µM) 139% | viability, T/C (second compound 10 µM, first compound 3.16 µM) 144% | viability, T/C (second compound 10 µM, first compound 10 µM) 145%
> 10000 nM: IC50 (curve of first compound, second compound 0.1 µM) | IC50 (curve of first compound, second compound 0.316 µM) | IC50 (curve of first compound, second compound 1 µM) | IC50 (curve of first compound, second compound 3.16 µM) | IC50 (curve of first compound, second compound 10 µM)

O=C(c1ccc(F)c(F)c1Nc1ccc(I)cc1F)N1CC(O)([C@@H]2CCCCN2)C1
inactive: viability, T/C (compound 0.00316 µM) 97.8% and 97.6% and 103% | viability, T/C (compound 0.01 µM) 96.5% and 97.5% and 102% | viability, T/C (compound 0.0316 µM) 69.4% and 74.8% and 72.2% | viability, T/C (compound 0.1 µM) 53% and 61.5% and 50.5% | viability, T/C (compound 0.316 µM) 44.4% and 51% and 47.7% | viability, T/C (compound 1 µM) 30.7% and 36% and 33.2%
134 nM and 265 nM and 103 nM: IC50 (curve of compound)

Reference: PubChem BioAssay AID1963436 (Molecular Pharmacology Branch, DTP, NCI, 2024)
